Laboratory results published in patent US20200062696A1, “COMPOSITIONS AND METHODS FOR INHIBITING RETICULON 4” (THE REGENTS OF THE UNIVERSITY OF CALIFORNIA, priority 2017, published 2020).

System: SW620 tumor xenograft
Test: SW620 tumor xenograft growth in immune-deficient SCID mice
Assay type: in vivo
Conditions: 50 mg/kg ip once per day, started ten days after subcutaneous injection of SW620 cells
Method: Tumor Xenograft Growth Studies. C.B17 SCID male mice (6-8 weeks old) were injected subcutaneously into the flank with 2,000,000 cells in serum-free media. For pharmacological treatments, mice were exposed by intraperitoneal (ip) injection with either vehicle (18:1:1 PBS/ethanol/PEG40) or 50 mg/kg DKM 3-30 once per day starting ten days after the initiation of the xenograft experiment and until the completion of the study. Tumors were measured every 7 days by caliper measurements. Animal experiments were conducted in accordance with the guidelines of the Institutional Animal Care and Use Committee of the University of California, Berkeley.

For `C=CC(=O)Nc1ccc(Oc2ccc(Cl)cc2)cc1` [DKM 3-30, N-(4-(4-chlorophenoxy)phenyl)acrylamide], the tumor xenograft growth was “initial regression and a sustained impairment in tumor growth”.
